Experimental data: ChEMBL document CHEMBL4229365, “Synthesis of novel ring-contracted artemisinin dimers with potent anticancer activities” (Eur J Med Chem, 2018)

Experiments:
A-375 = test: Antiproliferative activity against human A375 cells after 72 hrs by CCK-8 assay; assay type: functional, cell-based; settings: A-375, 72 h
A549 = test: Antiproliferative activity against human A549 cells after 72 hrs by CCK-8 assay; assay type: functional, cell-based; settings: A549, 72 h
SH-SY5Y = test: Antiproliferative activity against human SH-SY5Y cells after 72 hrs by CCK-8 assay; assay type: functional, cell-based
HCT-116 = test: Antiproliferative activity against human HCT116 cells after 72 hrs by CCK-8 assay; assay type: functional, cell-based; settings: HCT-116, 72 h
PC-12 = test: Antiproliferative activity against rat PC12 cells after 72 hrs by CCK-8 assay; assay type: functional, cell-based; settings: PC-12, 72 h
L02 = test: Antiproliferative activity against human L02 cells after 72 hrs by CCK-8 assay; assay type: cell-based; settings: L02, 72 h
[1] = Half life in human liver microsomes at 1.11 uM preincubated for 10 mins followed by NADPH addition by LC-MS/MS analysis; assay type: ADME, microsome

Compound | IC50 (A-375) | IC50 (A549) | IC50 (SH-SY5Y) | IC50 (HCT-116) | IC50 (PC-12) | IC50 (L02) | half-life at 1.11 µM [1]
C[C@@H]1CC[C@@H]2[C@]34OO[C@](C)(CC[C@@H]13)O[C@H]4O[C@]2(C)C(=O)OCCCCOC(=O)[C@@]1(C)O[C@@H]2O[C@@]3(C)CC[C@H]4[C@H](C)CC[C@@H]1[C@@]24OO3 | 13.2 µM | 6.56 µM | 6.26 µM | 7.65 µM | 8.52 µM | 16.2 µM | 
C[C@@H]1CC[C@@H]2[C@]34OO[C@](C)(CC[C@@H]13)O[C@H]4O[C@]2(C)C(=O)OCCCCCCOC(=O)[C@@]1(C)O[C@@H]2O[C@@]3(C)CC[C@H]4[C@H](C)CC[C@@H]1[C@@]24OO3 | 22.6 µM | > 50 µM | 15.3 µM | > 50 µM | 33.2 µM | > 50 µM | 
C[C@@H]1CC[C@H]2[C@@H](C)C(=O)O[C@@H]3O[C@@]4(C)CC[C@@H]1[C@]32OO4 [ARTEMISININ] | > 50 µM | > 50 µM | > 50 µM | > 50 µM | > 50 µM | > 50 µM | 
C[C@@H]1CC[C@@H]2[C@]34OO[C@](C)(CC[C@@H]13)O[C@H]4O[C@]2(C)C(=O)Nc1ccc(NC(=O)[C@@]2(C)O[C@@H]3O[C@@]4(C)CC[C@H]5[C@H](C)CC[C@@H]2[C@@]35OO4)cc1 | > 50 µM | > 50 µM | > 50 µM | > 50 µM | > 50 µM |  | 
C[C@@H]1CC[C@@H]2[C@]34OO[C@](C)(CC[C@@H]13)O[C@H]4O[C@]2(C)C(=O)OCCCCCCCOC(=O)[C@@]1(C)O[C@@H]2O[C@@]3(C)CC[C@H]4[C@H](C)CC[C@@H]1[C@@]24OO3 | 7.86 µM | 7.71 µM | 7.29 µM | 11.6 µM | 8.17 µM | 16.6 µM | 
CCOP(=O)(OC[C@@]1(C)O[C@@H]2O[C@@]3(C)CC[C@H]4[C@H](C)CC[C@@H]1[C@@]24OO3)OC[C@@]1(C)O[C@@H]2O[C@@]3(C)CC[C@H]4[C@H](C)CC[C@@H]1[C@@]24OO3 | 9.62 µM | 15.4 µM |  | 14.8 µM | 5.46 µM | 33.9 µM | 
C[C@@H]1CC[C@@H]2[C@]34OO[C@](C)(CC[C@@H]13)O[C@H]4O[C@]2(C)CO | > 50 µM | > 50 µM | > 50 µM | > 50 µM | > 50 µM | > 50 µM | 
C[C@@H]1CC[C@@H]2[C@]34OO[C@](C)(CC[C@@H]13)O[C@H]4O[C@]2(C)C(=O)OCCCCCCCCOC(=O)[C@@]1(C)O[C@@H]2O[C@@]3(C)CC[C@H]4[C@H](C)CC[C@@H]1[C@@]24OO3 | 5.73 µM | 4.69 µM | 4.87 µM | 31.6 µM | 5.67 µM | 4.84 µM | 
C[C@@H]1CC[C@@H]2[C@]34OO[C@](C)(CC[C@@H]13)O[C@H]4O[C@]2(C)C(=O)OCCOC(=O)[C@@]1(C)O[C@@H]2O[C@@]3(C)CC[C@H]4[C@H](C)CC[C@@H]1[C@@]24OO3 | > 50 µM | > 50 µM | > 50 µM | > 50 µM | > 50 µM |  | 
C[C@@H]1CC[C@@H]2[C@]34OO[C@](C)(CC[C@@H]13)O[C@H]4O[C@]2(C)C(=O)Nc1ccccc1NC(=O)[C@@]1(C)O[C@@H]2O[C@@]3(C)CC[C@H]4[C@H](C)CC[C@@H]1[C@@]24OO3 | 11.3 µM | 31.6 µM | 5.75 µM | 20 µM | 18.2 µM | > 50 µM | 
C[C@@H]1CC[C@@H]2[C@]34OO[C@](C)(CC[C@@H]13)O[C@H]4O[C@]2(C)C(=O)NCCCCCCNC(=O)[C@@]1(C)O[C@@H]2O[C@@]3(C)CC[C@H]4[C@H](C)CC[C@@H]1[C@@]24OO3 | 35.3 µM | > 50 µM | > 50 µM | > 50 µM | > 50 µM |  | 
C[C@@H]1CC[C@@H]2[C@]34OO[C@](C)(CC[C@@H]13)O[C@H]4O[C@]2(C)C(=O)OCCCCCCCCCOC(=O)[C@@]1(C)O[C@@H]2O[C@@]3(C)CC[C@H]4[C@H](C)CC[C@@H]1[C@@]24OO3 | 8.13 µM | 12.2 µM | 5.12 µM | 7.41 µM | 4.46 µM | 33.7 µM | 
COc1cccc2c1C(=O)c1c(O)c3c(c(O)c1C2=O)C[C@@](O)(C(=O)CO)C[C@@H]3O[C@H]1C[C@H](N)[C@H](O)[C@H](C)O1 [DOXORUBICIN] | 0.37 µM | 0.43 µM | 0.35 µM | 0.79 µM | 0.52 µM | 0.85 µM | 
C[C@@H]1CC[C@@H]2[C@]34OO[C@](C)(CC[C@@H]13)O[C@H]4O[C@]2(C)/C=C\COP(=O)(OC/C=C/[C@@]1(C)O[C@@H]2O[C@@]3(C)CC[C@H]4[C@H](C)CC[C@@H]1[C@@]24OO3)Oc1ccccc1 | 8.14 µM | 10.7 µM | 5.79 µM | 9.1 µM | 7.22 µM | 31.6 µM | 
C[C@@H]1CC[C@@H]2[C@]34OO[C@](C)(CC[C@@H]13)O[C@H]4O[C@]2(C)C(=O)NCCCCCCCCNC(=O)[C@@]1(C)O[C@@H]2O[C@@]3(C)CC[C@H]4[C@H](C)CC[C@@H]1[C@@]24OO3 | 19.4 µM | 18.9 µM | > 50 µM | > 50 µM | 11.2 µM | > 50 µM | 
C[C@@H]1CC[C@@H]2[C@]34OO[C@](C)(CC[C@@H]13)O[C@H]4O[C@]2(C)C(=O)OCC(C)(C)COC(=O)[C@@]1(C)O[C@@H]2O[C@@]3(C)CC[C@H]4[C@H](C)CC[C@@H]1[C@@]24OO3 | > 50 µM | > 50 µM | > 50 µM | > 50 µM | > 50 µM |  | 
C[C@@H]1CC[C@@H]2[C@]34OO[C@](C)(CC[C@@H]13)O[C@H]4O[C@]2(C)C(=O)OCCCCCCCCCCOC(=O)[C@@]1(C)O[C@@H]2O[C@@]3(C)CC[C@H]4[C@H](C)CC[C@@H]1[C@@]24OO3 | 20.8 µM | 29 µM | > 50 µM | > 50 µM | > 50 µM | > 50 µM | 
C[C@]12CC[C@H]3[C@@H](CCC4=CC(=O)CC[C@@]43C)[C@@H]1CC[C@@H]2O [TESTOSTERONE] |  |  |  |  |  |  | 10.3 min
CCOP(=O)(OC/C=C\[C@@]1(C)O[C@@H]2O[C@@]3(C)CC[C@H]4[C@H](C)CC[C@@H]1[C@@]24OO3)OC/C=C/[C@@]1(C)O[C@@H]2O[C@@]3(C)CC[C@H]4[C@H](C)CC[C@@H]1[C@@]24OO3 | 12.4 µM | 11.4 µM | 6.38 µM | 10.7 µM | 5.26 µM | 18.7 µM | 
C[C@@H]1CC[C@@H]2[C@]34OO[C@](C)(CC[C@@H]13)O[C@H]4O[C@]2(C)C(=O)OCCCCCOC(=O)[C@@]1(C)O[C@@H]2O[C@@]3(C)CC[C@H]4[C@H](C)CC[C@@H]1[C@@]24OO3 | > 50 µM | 12 µM | 9.26 µM | > 50 µM | > 50 µM |  | 
C[C@@H]1CC[C@@H]2[C@]34OO[C@](C)(CC[C@@H]13)O[C@H]4O[C@]2(C)C(=O)NCCCCNC(=O)[C@@]1(C)O[C@@H]2O[C@@]3(C)CC[C@H]4[C@H](C)CC[C@@H]1[C@@]24OO3 | > 50 µM | > 50 µM | > 50 µM | > 50 µM | 25.4 µM |  | 
C[C@H]1[C@@H](O)O[C@@H]2O[C@@]3(C)CC[C@H]4[C@H](C)CC[C@@H]1[C@@]24OO3 [ARTENIMOL] | > 50 µM | 29.9 µM | > 50 µM | 32.8 µM | > 50 µM | > 50 µM | 
C[C@@H]1CC[C@@H]2[C@]34OO[C@](C)(CC[C@@H]13)O[C@H]4O[C@]2(C)C(=O)Nc1cccc(NC(=O)[C@@]2(C)O[C@@H]3O[C@@]4(C)CC[C@H]5[C@H](C)CC[C@@H]2[C@@]35OO4)c1 | > 50 µM | > 50 µM | > 50 µM | > 50 µM | > 50 µM |  | 
C[C@@H]1CC[C@@H]2[C@]34OO[C@](C)(CC[C@@H]13)O[C@H]4O[C@]2(C)C(=O)O | > 50 µM | > 50 µM | > 50 µM | > 50 µM | 37.3 µM | > 50 µM | 
C[C@@H]1CC[C@@H]2[C@]34OO[C@](C)(CC[C@@H]13)O[C@H]4O[C@]2(C)C(=O)OCCCCCCCCCCCCOC(=O)[C@@]1(C)O[C@@H]2O[C@@]3(C)CC[C@H]4[C@H](C)CC[C@@H]1[C@@]24OO3 | > 50 µM | > 50 µM | > 50 µM | > 50 µM | > 50 µM |  | 
C[C@@H]1CC[C@@H]2[C@]34OO[C@](C)(CC[C@@H]13)O[C@H]4O[C@]2(C)C(=O)OCc1ccccc1COC(=O)[C@@]1(C)O[C@@H]2O[C@@]3(C)CC[C@H]4[C@H](C)CC[C@@H]1[C@@]24OO3 | > 50 µM | 21.7 µM | 47.5 µM | 15.1 µM | 8.73 µM | 5 µM | 
